Laboratory results as given in article PMC3928794 (Chemistry & biodiversity, 2013).
Like-named read-outs stand apart in the source and are kept apart here.

Experiments:
Format in all cases: cell-based
[1] = system: A2780 human ovarian cancer cell line; assay: Antiproliferative bioassay, A2780 ovarian cancer cell line; settings: for IC50: read-out: IC50 (μM) A2780, A2780 ovarian cancer cells, mean of three replicates
[2] = system: H522 lung cancer cell line; assay: Antiproliferative bioassay, H522 lung cancer cell line
A2058 melanoma cell line = assay: Antiproliferative bioassay, A2058 melanoma cell line
[3] = read-out: IC50 (μM) H522, H522 lung cancer cells

| Compound | inhibition of the proliferation of A2780 cells (in words) [1] | IC50 [1] | IC50 [2, 3] | IC50 (A2058 melanoma cell line; Homo sapiens, A2058, read-out: IC50 (μM) A2058) | IC50 ([2]; Homo sapiens, NCI-H522, read-out: IC50 (μM) H522) | IC50 (A2058 melanoma cell line; read-out: IC50 (μM) A2058, A2058 melanoma cells) |
| --- | --- | --- | --- | --- | --- | --- |
| CC(=O)OC[C@H]1O[C@@H](O[C@H]2CC[C@]3(C)[C@H]4CC=C5[C@@H]6CC(C)(C)CC[C@]6(C(=O)O)CC[C@@]5(C)[C@]4(C)CC[C@H]3C2(C)C)[C@H](O)[C@@H](O[C@@H]2O[C@H](CO)[C@@H](O)[C@H](O)[C@H]2O)[C@@H]1O [Compound 3, oleanolic acid-3-O-β-D-glucopyranosyl-(1→3)-(6″-O-acetyl)-β-D-glucopyranoside] | selectively inhibit the proliferation of A2780 ovarian cancer cells | 1.2 ± 0.3 µM | > 10 µM | – | – | – |
| CC[C@]1(O)C[C@@H]2CN(CCc3c([nH]c4ccccc34)[C@@](C(=O)OC)(c3cc4c(cc3OC)N(C)[C@H]3[C@@](O)(C(=O)OC)[C@H](OC(C)=O)[C@]5(CC)C=CCN6CC[C@]43[C@@H]65)C2)C1 [Vinblastine, reference compound] | – | – | – | 0.004 µM | 0.009 µM | – |
| oleanolic acid-3-O-β-D-glucopyranosyl- (1→3)-β-D-glucopyranoside [Compound 1] | – | 2.2 ± 0.2 µM | 7.32 µM | – | – | 7.63 µM |
| oleanolic acid-3-O-β-D-glucopyranosyl-(1→3)-(2″-O-acetyl)-β-D-glucopyranoside [Compound 2] | selectively inhibit the proliferation of A2780 ovarian cancer cells | 1.7 ± 0.1 µM | > 10 µM | – | – | – |
